Measured values published in the supplement of paper PMC10307832.

What was measured:
Test in all cases: relative viability (nuclei count vs DMSO), 5 days (fraction); higher = more cells survive
Tozasertib + Phenformin = compound: Cc1cc(Nc2cc(N3CCN(C)CC3)nc(Sc3ccc(NC(=O)C4CC4)cc3)n2)n[nH]1 [Tozasertib] + N=C(N)NC(=N)NCCc1ccccc1 [Phenformin] (partner 250 µM)
Summary of the method: (§1)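 Five library-drug doses in √10 steps were combined with a fixed anchor-drug dose, or a single drug was given alone, by pin tool to lung cancer cell lines in 1536-well plates the day after seeding. Nuclei were stained and counted after 5 days. Relative viability is the nuclei count in treated wells over that in vehicle wells, taken as the median of duplicate plates.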

Tozasertib + Pemetrexed = compound: Cc1cc(Nc2cc(N3CCN(C)CC3)nc(Sc3ccc(NC(=O)C4CC4)cc3)n2)n[nH]1 [Tozasertib] + Nc1nc2[nH]cc(CCc3ccc(C(=O)N[C@@H](CCC(=O)O)C(=O)O)cc3)c2c(=O)[nH]1 [Pemetrexed] (partner 0.2 µM)
Summary of the method: as §1

Tozasertib + AZD7762 = compound: Cc1cc(Nc2cc(N3CCN(C)CC3)nc(Sc3ccc(NC(=O)C4CC4)cc3)n2)n[nH]1 [Tozasertib] + NC(=O)Nc1cc(-c2cccc(F)c2)sc1C(=O)N[C@H]1CCCNC1 [AZD7762] (partner 0.2 µM)
Summary of the method: as §1

Tozasertib + Bortezomib = compound: Cc1cc(Nc2cc(N3CCN(C)CC3)nc(Sc3ccc(NC(=O)C4CC4)cc3)n2)n[nH]1 [Tozasertib] + CC(C)C[C@H](NC(=O)[C@H](Cc1ccccc1)NC(=O)c1cnccn1)B(O)O [Bortezomib] (partner 0.002 µM)
Summary of the method: as §1

Tozasertib + Navitoclax = compound: Cc1cc(Nc2cc(N3CCN(C)CC3)nc(Sc3ccc(NC(=O)C4CC4)cc3)n2)n[nH]1 [Tozasertib] + CC1(C)CCC(c2ccc(Cl)cc2)=C(CN2CCN(c3ccc(C(=O)NS(=O)(=O)c4ccc(N[C@H](CCN5CCOCC5)CSc5ccccc5)c(S(=O)(=O)C(F)(F)F)c4)cc3)CC2)C1 [Navitoclax] (partner 0.5 µM)
Summary of the method: as §1

Cell Line | relative viability (Tozasertib + Phenformin; first compound 0.004 µM) | relative viability (Tozasertib + Phenformin; first compound 0.01265 µM) | relative viability (Tozasertib + Phenformin; first compound 0.04 µM) | relative viability (Tozasertib + Phenformin; first compound 0.1265 µM) | relative viability (Tozasertib + Pemetrexed; first compound 0.004 µM) | relative viability (Tozasertib + Pemetrexed; first compound 0.01265 µM) | relative viability (Tozasertib + Pemetrexed; first compound 0.04 µM) | relative viability (Tozasertib + Pemetrexed; first compound 0.1265 µM) | relative viability (Tozasertib + AZD7762; first compound 0.004 µM) | relative viability (Tozasertib + AZD7762; first compound 0.04 µM) | relative viability (Tozasertib + AZD7762; first compound 0.1265 µM) | relative viability (Tozasertib + Bortezomib; first compound 0.004 µM) | relative viability (Tozasertib + Bortezomib; first compound 0.01265 µM) | relative viability (Tozasertib + Bortezomib; first compound 0.04 µM) | relative viability (Tozasertib + Bortezomib; first compound 0.1265 µM) | relative viability (Tozasertib + Navitoclax; first compound 0.004 µM) | relative viability (Tozasertib + Navitoclax; first compound 0.01265 µM) | relative viability (Tozasertib + Navitoclax; first compound 0.04 µM) | relative viability (Tozasertib + Navitoclax; first compound 0.1265 µM) | relative viability (Tozasertib + AZD7762; first compound 0.01265 µM)
NCI-H358 | 0.353 | 0.295 | 0.354 | 0.0988 | 0.179 | 0.164 | 0.181 | 0.145 | 0.393 | 0.475 | 0.227 | – | – | – | – | – | – | – | – | –
NCI-H520 | 0.546 | 0.57 | 0.662 | 0.234 | 0.743 | 0.789 | 0.633 | 0.413 | – | – | – | 0.555 | 0.585 | 0.852 | 0.255 | 1.08 | 1.03 | 1.17 | 0.602 | –
NCI-H522 | 0.687 | 0.62 | 0.676 | 0.593 | 0.931 | 1.16 | 0.927 | 0.837 | – | 0.772 | 0.47 | – | – | – | – | – | – | – | – | 0.841
NCI-H650 | 0.497 | 0.445 | 0.444 | 0.379 | 1.01 | 0.897 | 0.878 | 0.82 | 0.935 | 0.797 | 1.05 | 0.663 | 0.68 | 0.976 | 0.523 | – | – | – | – | 1.07
NCI-H661 | 0.287 | 0.313 | 0.319 | 0.253 | 1.01 | 0.833 | 0.933 | 0.561 | – | – | – | 0.922 | 0.741 | 1.03 | 0.499 | – | – | – | – | –
NCI-H727 | 0.588 | 0.466 | 0.537 | 0.375 | – | – | – | – | 0.446 | 0.716 | 0.455 | 1.07 | 1.04 | 1.02 | 0.53 | 0.481 | 0.5 | 0.489 | 0.242 | 0.481
NCI-H1395 | 0.46 | 0.429 | 0.47 | 0.359 | 0.979 | 0.797 | 0.864 | 0.584 | 0.385 | 0.389 | 0.397 | – | – | – | – | 1.28 | 1.13 | 1.06 | 0.825 | 0.414
NCI-H1563 | 0.704 | 0.668 | 0.721 | 0.573 | 0.816 | 0.845 | 0.823 | 0.615 | – | – | – | 0.873 | 0.817 | 0.956 | 0.861 | – | – | – | – | –
NCI-H1650 | 0.47 | 0.38 | 0.595 | 0.199 | 0.334 | 0.374 | 0.381 | 0.385 | – | – | – | 0.202 | 0.207 | 0.24 | 0.2 | – | 0.981 | 1.24 | 0.936 | –
NCI-H1703 | – | – | – | – | – | – | – | – | 0.0927 | 0.126 | 0.12 | 0.41 | 0.29 | 0.401 | 0.222 | 1.35 | 1.14 | 1.26 | 0.366 | –
NCI-H1793 | 0.33 | 0.427 | 0.414 | 0.458 | 1.02 | – | 1.16 | 0.458 | 0.405 | 0.59 | 0.486 | – | – | – | – | 0.492 | 0.501 | 0.453 | 0.33 | 0.425
